These results are taken from PubChem BioAssay (NCI).

Test systems include MCF7 breast; SK-MEL-5 melanoma; SNB-19 CNS; UO-31 renal; MOLT-4 leukemia; OVCAR-3 ovarian; SK-MEL-2 melanoma; SNB-75 CNS; A549 NSCLC; A498 renal; SW-620 colon; BT-549 breast; UACC-62 melanoma; NCI-H522 lung; HT29 colon; MDA-N; 786-0 renal; NCI/ADR-RES ovarian; SF-268 CNS; NCI-H460 lung.
What all share (experiment): NCI-60 cell line screen, 48 h

Structures are written as SMILES.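 Cells were grown in 96-well plates and exposed to each compound for 48 hours at five concentrations; endpoints were interpolated linearly between bracketing concentrations, or set to the highest concentration if not reached. TGI marks complete inhibition of growth.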

On to `CC(=O)Nc1ccc(NS(=O)(=O)c2ccc3nc(C)n(NS(=O)(=O)c4ccc(NC(C)=O)cc4)c(=O)c3c2)cc1`, for which the TGI in the assay with MCF7 breast, with SK-MEL-5 melanoma, with SNB-19 CNS, in the assay on UO-31 renal, with MOLT-4 leukemia and in the assay on OVCAR-3 ovarian was above 100 µM each time. For the same compound, the TGI in the assay on SK-MEL-2 melanoma, with SNB-75 CNS, with A549 NSCLC, in the assay on A498 renal, in the assay with SW-620 colon and with BT-549 breast was above 100 µM in each case. The TGI with UACC-62 melanoma, in the assay on NCI-H522 lung, in the assay on HT29 colon, in the assay with MDA-N, in the assay on 786-0 renal and with NCI/ADR-RES ovarian was above 100 µM in each case. In addition, the TGI with SF-268 CNS and with NCI-H460 lung was above 100 µM in each case.

With `CCN(CC)CCC(=O)c1ccc(Sc2ccc(F)cc2)cc1`, the TGI with MCF7 breast was 31 µM; in the assay on SK-MEL-5 melanoma, 34.5 µM; with SNB-19 CNS it was 34 µM; with UO-31 renal it was 31.9 µM; with MOLT-4 leukemia, 33.5 µM; with OVCAR-3 ovarian it was 40.9 µM. Further, the TGI in the assay on SK-MEL-2 melanoma was 45.1 µM; with SNB-75 CNS, 32.2 µM; with A549 NSCLC, above 100 µM; in the assay with A498 renal it was 45.7 µM; in the assay with SW-620 colon, 41.2 µM; in the assay with BT-549 breast it was 31.6 µM. Also, the TGI with UACC-62 melanoma was 31.1 µM; with NCI-H522 lung it was 35.8 µM; with HT29 colon it was 85.2 µM; in the assay with MDA-N, 49 µM; in the assay with 786-0 renal it was 23.6 µM; in the assay with NCI/ADR-RES ovarian, 71.1 µM. For the same compound, the TGI in the assay on SF-268 CNS amounted to 35.1 µM; in the assay with NCI-H460 lung it was 41.1 µM.
